From patent publication US20060293383A1, “Carbamate compounds for use in preventing or treating neuropathic pain and cluster and migraine headache-associated pain” (priority 2001, published 2006)

Test system: Chung model of neuropathic pain
Assay: Antiallodynic activity in the Chung model (spinal nerve ligation), manually applied von Frey probes
Format: in vivo, Sprague-Dawley rats
Conditions: for % Maximum Possible Effect: 30 min after oral dosing (time of peak effect), L5 spinal nerve ligated rats, paw withdrawal threshold
Source text: The procedure used to test the antiallodynic activity of an enantiomer of Formula (I) substantially free of other enantiomers was the procedure for the measurement of allodynia found in the Chung Model (Kim S. H. and Chung J. M., An Experimental Model for Peripheral Neuropathy Produced by Segmental Spinal Nerve Ligation in the Rat, Pain, 1992, 50, 355-363).
Evaluation of Antiallodynic Activity (Manually Applied Von Frey Probes) Animals
Pathogen-free, male albino Sprague-Dawley rats, 200 g, were purchased from Harlan Industries (Indianapolis, Ind.) and maintained on a 12-h light/dark cycle (lights on at 06:00 h) in a climate-controlled room with food and water available ad libitum up to the time of the testing and food withdrawn 18 hr prior to testing.
Surgical Procedure and Measurement of Allodynia
The rats were anesthetized with isoflurane inhalant anesthesia. The left lumbar spinal nerve at the level of L5 was tightly ligated (4-0 silk suture) distal to the dorsal root ganglion and prior to entrance into the sciatic nerve, as described by Kim and Chung. The incisions were closed and the rats were allowed to recover under conditions described above. This procedure results in mechanical allodynia in the left hind paw. The sham operation, when performed, consisted of a similar surgical procedure lacking only the final ligation of the spinal nerve. Mechanical (tactile) allodynia was assessed by recording the pressure at which the affected paw (ipsilateral to the site of nerve injury) was withdrawn from graded stimuli (von Frey filaments ranging from 4.0 to 148.1 mN) applied by hand perpendicularly to the plantar surface of the paw (between the footpads) through wire-mesh observation cages. A paw withdrawal threshold (PWT) was determined by sequentially increasing and decreasing the stimulus strength and analyzing withdrawal data using a Dixon non-parametric test, as described by Chaplan et al (Chaplan S. R., Bach F. W., Pogrel J. W., Chung J. M. and Yaksh T. L., Quantitative Assessment of Tactile Allodynia in the Rat Paw, J Neurosci Meth, 1994, 53, 55-63). […]

Q: How did the “% Maximum Possible Effect” value (30 mg/kg po) turn out when `NC(=O)OC[C@H](O)c1ccccc1Cl` [Formula (Ib)] was run?
A: 11%

Q: What about the “% Maximum Possible Effect” value (100 mg/kg po) of the same compound?
A: 28%

Q: What about the “time of peak antiallodynic effect” value (after oral dosing, 30 and 100 mg/kg) of the same compound?
A: 30 min
